Measurements reported in patent publication US20230233538A1, “COMPOSITION FOR TREATING CORONAVIRUS DISEASE-19, COMPRISING PHENANTHROINDOLIZIDINE AND PHENANTHROQUI[…] DERIVATIVES, OPTICAL ISOMER THEREOF, OR PHARMACEUTICALLY ACCEPTABLE SALTS THEREOF AS ACTIVE INGREDIENT” (priority 2020, published 2023).
Read-outs that look alike come from different tables or passages of the source.

How the values were obtained:
SARS-CoV-2 = test: microbe, parasite or virus in culture; type: cell-based; settings: for EC50: read-out: Effective Concentration 50 (EC50), 50% virus proliferation inhibitory concentration
in vitro = settings: African green monkey, Cytotoxic Concentration 50 (CC50)
[1] = Severe acute respiratory syndrome coronavirus 2, 48 h

| Compound | EC50 (SARS-CoV-2; [1]) [nM] | EC50 (SARS-CoV-2) [nM] | CC50 (in vitro) [nM] | Selectivity Index (SI) (Vero CCL-81 cells) | CC50 (Vero CCL-81 cells; African green monkey) [µM] | fold greater effect (virus proliferation inhibitory ability) compared to Remdesivir (SARS-CoV-2) |
| --- | --- | --- | --- | --- | --- | --- |
| CCC(CC)COC(=O)[C@H](C)N[P@](=O)(OC[C@H]1O[C@@](C#N)(c2ccc3c(N)ncnn23)[C@H](O)[C@@H]1O)Oc1ccccc1 [Remdesivir, reference compound] | 22000 | 22100 | 172000 | 7.8 | 172 | – |
| COc1cc2c3c(c4ccc(NS(C)(=O)=O)cc4c2cc1OC)CN1CCCC[C@@H]1C3 [Compound 2, (R)-N-(2,3-dimethoxy-11,12,13,14,14a,15-hexahydro-9H-dibenzo[f,h]pirido[1,2-b]isoquinolin-6-yl)methanesulfonamide] | 13 | – | 126 | 10 | – | ~1,700 fold |
| COc1ccc2c3c(c4cc(OC)c(OC)cc4c2c1)C[C@H]1CCCN1C3 [antofine, reference compound] | – | 37 | 872 | 24 | – | – |
| COC(=O)Nc1ccc2c3c(c4cc(OC)c(OC)cc4c2c1)CC1CCCCN1C3 (centres unmarked) [Compound 3, methyl(2,3-dimethoxy-11,12,13,14,14a,15-hexahydro-9H-dibenzo[f,h]pirido[1,2-b]isoquinolin-6-yl)carbamate] | 17 | – | 317 | 19 | – | ~1,300 fold |
| COc1cc2c3c(c4ccc(NS(C)(=O)=O)cc4c2cc1OC)CN1CCC[C@@H]1C3 [Compound 1, (R)-N-(2,3-dimethoxy-9,11,12,13,13a,14-hexahydrodibenzo-[f,h]pyrrolo[1,2-b]isoquinolin-6-yl)methanesulfonamide] | 35 | – | 1820 | 52 | – | – |
| COc1ccc2c3c(c4cc(OC)c(OC)cc4c2c1)C[C@H]1CCCCN1C3 [cryptopleurin, reference compound] | – | 11 | – | – | – | – |
